From ChEMBL document CHEMBL1201862, “PubChem BioAssay data set” (2004)
Calls of active or inactive are those of the source.

Assays:
Escherichia coli [1] = assay: microbe, parasite or virus in culture
Escherichia coli [2] = assay: microbe, parasite or virus in culture; remark: listed apart in the source
[3] = molecular target: Induced myeloid leukemia cell differentiation protein Mcl-1 (Homo sapiens, UniProt Q07820); type: functional
Genome polyprotein = Genome polyprotein (dengue virus type 2, UniProt P29990); assay: flavivirus cap methylation enzyme inhibition – biochemical, confirmation dose response, primary screen (AID 588689); type: functional
[4] = molecular target: T1, Mannose-6-phosphate isomerase (Homo sapiens, UniProt P34949); assay: phosphomannose isomerase inhibition – biochemical, fluorescence intensity, confirmation (AID 1535)
T1 sequence (P34949 whole entry): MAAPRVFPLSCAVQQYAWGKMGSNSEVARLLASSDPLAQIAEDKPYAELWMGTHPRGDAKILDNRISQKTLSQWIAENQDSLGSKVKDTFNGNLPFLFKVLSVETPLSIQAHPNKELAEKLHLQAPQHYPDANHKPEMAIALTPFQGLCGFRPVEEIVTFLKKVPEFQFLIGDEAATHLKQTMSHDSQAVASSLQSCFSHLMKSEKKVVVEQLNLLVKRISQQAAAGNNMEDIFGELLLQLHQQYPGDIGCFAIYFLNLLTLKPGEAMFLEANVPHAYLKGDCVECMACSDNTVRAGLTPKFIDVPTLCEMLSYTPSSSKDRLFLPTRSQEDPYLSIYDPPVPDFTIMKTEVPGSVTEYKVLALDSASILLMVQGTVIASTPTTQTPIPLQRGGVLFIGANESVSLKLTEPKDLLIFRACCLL

[5] = molecular target: DNA dC->dU-editing enzyme APOBEC-3A (Homo sapiens, UniProt P31941); assay: Dose Response confirmation of small molecule APOBEC3A DNA Deaminase Inhibitors via a fluorescence-based single-stranded DNA deaminase assay. [Related pubchem assays (depositor defined):AID493011, AID493024]; type: functional
[6] = molecular target: DNA dC->dU-editing enzyme APOBEC-3G (Homo sapiens, UniProt Q9HC16); type: functional;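 further: Dose-response counterscreen measuring inhibition of APOBEC3G DNA deaminase activity, run while confirming APOBEC3A inhibitors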
[7] = molecular target: T2, Carboxy-terminal domain RNA polymerase II polypeptide A small phosphatase 1 (Homo sapiens, UniProt Q9GZU7); assay: CTDSP1 inhibitors, concentration-response, biochemical, absorbance readout, ultra-high-throughput screen actives (AID 540297); type: functional
T2 sequence (Q9GZU7 whole entry): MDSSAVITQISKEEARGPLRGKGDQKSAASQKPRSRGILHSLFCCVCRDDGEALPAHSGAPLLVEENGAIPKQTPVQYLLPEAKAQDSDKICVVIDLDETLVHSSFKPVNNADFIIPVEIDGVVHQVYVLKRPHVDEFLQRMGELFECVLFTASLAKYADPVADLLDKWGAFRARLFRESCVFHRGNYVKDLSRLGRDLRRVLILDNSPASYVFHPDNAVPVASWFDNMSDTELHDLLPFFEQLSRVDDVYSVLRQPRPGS

Phosphomannomutase 2 = molecular target: T3, Phosphomannomutase 2 (Homo sapiens, UniProt O15305); assay: Counter screen SAR assay for PMM2 inhibitors via a fluorescence intensity assay. [Related pubchem assays (depositor defined):AID1545, AID1574]
T3 sequence (O15305 whole entry): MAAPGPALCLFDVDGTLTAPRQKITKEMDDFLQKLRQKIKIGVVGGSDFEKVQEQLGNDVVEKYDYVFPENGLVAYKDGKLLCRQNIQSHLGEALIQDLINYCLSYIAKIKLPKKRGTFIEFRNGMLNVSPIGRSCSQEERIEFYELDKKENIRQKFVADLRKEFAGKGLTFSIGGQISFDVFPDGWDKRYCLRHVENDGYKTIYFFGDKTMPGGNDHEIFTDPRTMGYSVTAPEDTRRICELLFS

[8] = molecular target: T1, Mannose-6-phosphate isomerase; assay: MPI enzyme activity inhibition – biochemical, fluorescence intensity, coupled assay, primary screen (AID 1209)
[9] = molecular target: T4, Rac GTPase-activating protein 1 (Homo sapiens, UniProt Q9H0H5); assay: blockers of MgcRacGAP-driven Rac1 GTP hydrolysis – biochemical, ADP Hunter fluorescence, primary and confirmatory, confirmation (AID 624330); type: functional
T4 sequence (Q9H0H5 whole entry): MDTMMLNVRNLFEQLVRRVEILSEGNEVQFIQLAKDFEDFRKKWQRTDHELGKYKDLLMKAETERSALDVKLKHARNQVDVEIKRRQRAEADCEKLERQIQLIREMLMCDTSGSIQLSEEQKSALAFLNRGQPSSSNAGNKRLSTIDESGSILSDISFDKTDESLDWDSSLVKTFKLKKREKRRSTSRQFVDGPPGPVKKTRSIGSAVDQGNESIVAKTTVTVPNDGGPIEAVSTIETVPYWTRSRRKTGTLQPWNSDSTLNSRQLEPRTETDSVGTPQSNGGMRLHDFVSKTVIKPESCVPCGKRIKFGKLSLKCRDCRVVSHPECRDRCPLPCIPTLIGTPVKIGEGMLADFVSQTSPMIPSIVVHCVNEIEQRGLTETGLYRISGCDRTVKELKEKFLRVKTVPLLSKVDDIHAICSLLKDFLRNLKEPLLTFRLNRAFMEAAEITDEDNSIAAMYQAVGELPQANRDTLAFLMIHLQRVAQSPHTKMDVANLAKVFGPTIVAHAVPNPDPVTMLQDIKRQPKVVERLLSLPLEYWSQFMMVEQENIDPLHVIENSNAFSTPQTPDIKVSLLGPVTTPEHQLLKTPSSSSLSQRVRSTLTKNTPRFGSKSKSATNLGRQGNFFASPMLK

CAAX prenyl protease 2 [10] = molecular target: T5, CAAX prenyl protease 2 (Homo sapiens, UniProt Q9Y256); assay: inhibition of Ras-converting CAAX protease Rce1 – biochemical, yeast membranes, quenched-peptide fluorescence, cherry-pick, dose response (AID 588849)
T5 sequence (Q9Y256 whole entry): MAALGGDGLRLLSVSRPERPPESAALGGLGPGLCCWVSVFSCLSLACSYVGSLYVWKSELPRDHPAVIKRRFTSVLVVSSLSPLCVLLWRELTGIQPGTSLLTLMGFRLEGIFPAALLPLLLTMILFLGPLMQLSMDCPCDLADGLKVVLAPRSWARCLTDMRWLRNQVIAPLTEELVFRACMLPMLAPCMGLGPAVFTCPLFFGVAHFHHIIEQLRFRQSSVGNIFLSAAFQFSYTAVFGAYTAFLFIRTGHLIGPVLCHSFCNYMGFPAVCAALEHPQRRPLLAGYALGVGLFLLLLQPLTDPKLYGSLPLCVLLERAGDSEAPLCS

CAAX prenyl protease 2 [11] = molecular target: T6, CAAX prenyl protease 2 (Saccharomyces cerevisiae S288c, UniProt Q03530); type: biochemical
T6 sequence (Q03530 whole entry): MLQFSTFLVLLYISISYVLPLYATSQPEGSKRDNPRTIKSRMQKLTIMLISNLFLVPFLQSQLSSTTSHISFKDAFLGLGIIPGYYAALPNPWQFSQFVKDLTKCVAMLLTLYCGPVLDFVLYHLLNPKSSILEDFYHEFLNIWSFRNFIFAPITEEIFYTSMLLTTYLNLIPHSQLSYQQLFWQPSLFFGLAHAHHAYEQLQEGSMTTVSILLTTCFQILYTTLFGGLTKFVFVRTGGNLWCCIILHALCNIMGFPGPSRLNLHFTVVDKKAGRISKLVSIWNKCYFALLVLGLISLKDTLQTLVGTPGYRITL

Genome polyprotein, sequence (P29990 2492-3391 limits assumed): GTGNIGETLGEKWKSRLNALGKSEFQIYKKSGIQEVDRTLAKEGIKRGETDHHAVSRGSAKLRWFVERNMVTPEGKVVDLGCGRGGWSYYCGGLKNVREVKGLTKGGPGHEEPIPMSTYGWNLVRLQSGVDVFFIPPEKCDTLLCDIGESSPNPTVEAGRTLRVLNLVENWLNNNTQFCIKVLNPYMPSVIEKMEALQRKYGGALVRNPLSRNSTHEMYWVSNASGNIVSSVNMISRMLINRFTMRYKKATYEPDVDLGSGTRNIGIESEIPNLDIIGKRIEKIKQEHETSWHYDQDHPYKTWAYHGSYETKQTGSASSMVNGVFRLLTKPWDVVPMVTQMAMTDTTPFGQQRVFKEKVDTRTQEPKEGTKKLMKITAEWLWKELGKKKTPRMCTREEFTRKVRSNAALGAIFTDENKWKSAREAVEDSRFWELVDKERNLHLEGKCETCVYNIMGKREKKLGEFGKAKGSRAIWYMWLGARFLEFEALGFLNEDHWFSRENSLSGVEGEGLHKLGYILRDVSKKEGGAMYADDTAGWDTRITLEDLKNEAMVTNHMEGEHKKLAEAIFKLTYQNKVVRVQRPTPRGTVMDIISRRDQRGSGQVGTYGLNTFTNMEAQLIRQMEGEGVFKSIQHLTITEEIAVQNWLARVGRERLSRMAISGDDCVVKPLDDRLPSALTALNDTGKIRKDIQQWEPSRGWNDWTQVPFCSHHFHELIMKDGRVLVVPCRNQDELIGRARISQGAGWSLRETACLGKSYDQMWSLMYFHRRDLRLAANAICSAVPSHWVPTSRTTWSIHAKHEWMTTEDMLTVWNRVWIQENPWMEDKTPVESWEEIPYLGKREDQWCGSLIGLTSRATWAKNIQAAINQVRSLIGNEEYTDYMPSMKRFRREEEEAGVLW
DNA dC->dU-editing enzyme APOBEC-3A, sequence (P31941 whole entry): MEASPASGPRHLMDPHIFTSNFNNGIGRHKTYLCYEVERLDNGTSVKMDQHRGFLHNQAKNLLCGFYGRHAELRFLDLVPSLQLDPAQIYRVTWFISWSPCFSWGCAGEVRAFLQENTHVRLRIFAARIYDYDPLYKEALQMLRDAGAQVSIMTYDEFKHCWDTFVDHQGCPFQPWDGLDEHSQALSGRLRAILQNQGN
Induced myeloid leukemia cell differentiation protein Mcl-1, sequence (Q07820 whole entry): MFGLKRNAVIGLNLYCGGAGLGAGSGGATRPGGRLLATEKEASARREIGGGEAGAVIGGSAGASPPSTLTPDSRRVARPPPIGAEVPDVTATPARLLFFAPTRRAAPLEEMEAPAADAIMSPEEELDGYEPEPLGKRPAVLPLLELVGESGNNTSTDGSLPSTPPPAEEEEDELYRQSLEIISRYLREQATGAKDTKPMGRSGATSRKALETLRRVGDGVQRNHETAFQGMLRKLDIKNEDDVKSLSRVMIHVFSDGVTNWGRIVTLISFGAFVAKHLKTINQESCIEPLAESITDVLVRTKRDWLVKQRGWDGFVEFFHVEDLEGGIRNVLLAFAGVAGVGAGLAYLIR
DNA dC->dU-editing enzyme APOBEC-3G, sequence (Q9HC16 whole entry, the tested form may be a part): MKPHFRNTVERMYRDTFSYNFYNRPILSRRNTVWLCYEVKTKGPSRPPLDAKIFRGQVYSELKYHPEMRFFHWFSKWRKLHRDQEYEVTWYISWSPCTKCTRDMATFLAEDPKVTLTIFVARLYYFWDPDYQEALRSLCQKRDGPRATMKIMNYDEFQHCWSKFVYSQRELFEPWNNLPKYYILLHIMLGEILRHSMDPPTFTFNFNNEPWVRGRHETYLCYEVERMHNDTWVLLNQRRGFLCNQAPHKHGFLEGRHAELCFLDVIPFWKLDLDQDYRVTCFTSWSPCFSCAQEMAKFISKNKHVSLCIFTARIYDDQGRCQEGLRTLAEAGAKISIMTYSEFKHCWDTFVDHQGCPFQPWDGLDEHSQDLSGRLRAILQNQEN

Question: With CCc1ccc2c(c1)cc(CN(Cc1ccco1)C(C)=O)c1nnnn12 as the compound, how does the AC50 (Escherichia coli [1]) read?
Answer: 98.8 µM (active)

Question: What about the AC50 (Escherichia coli [2]) of the same compound?
Answer: 24.6 µM (active)

Question: Which results are given for O=C(O)CCn1cc(C=C2C(=O)NC(=S)NC2=O)c(-c2cccc(Br)c2)n1?
Answer: IC50 [3]: 2.39 µM (active); IC50 (Genome polyprotein): 6.04 µM (active); IC50 [4]: 9.83 µM (active); IC50 [5]: 15.8 µM (active); IC50 [6]: 29.3 µM (active); IC50 [7]: 4.47 µM (active); IC50 (Phosphomannomutase 2): > 100 µM (inactive); IC50 [8]: 11.7 µM (active); IC50 [9]: 89.9 µM (active)

Question: Which results are given for CCOC(=O)c1c(NC(=O)c2cccc(N3C(=O)CCC3=O)c2)sc(C)c1C?
Answer: AC50 (CAAX prenyl protease 2 [10]): 31.5 µM (active); AC50 (CAAX prenyl protease 2 [11]): > 100 µM (inactive)

Question: How did the AC50 (Escherichia coli [1]) turn out when CC(C)C(c1nnnn1C1CCCC1)N1CCC(C(N)=O)CC1 (centres undefined) was run?
Answer: 164 µM (active)
